Measurements from patent US20150272939A1, “Identification of Small Molecule Inhibitors of Jumonji AT-Rich Interactive Domain 1A (JARID1A) and 1B (JARID1B) Histone Demethylase” (Yale University, priority 2012, published 2015).
Where a name gives a salt, the structure may show the parent alone.

Legend:
[1] = AlphaScreen counterscreen against bio-H3K4me2 peptide in the absence of enzyme (artifact signal); conditions: for Artifact Signal (percent): effect of the compound when incubated with bio-H3K4me2 peptide (counterscreen, no enzyme); for Artifact signal: effect of the compound when it is incubated with bio-H3K4me2 peptide: counterscreen, no enzyme;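 on all read-outs here: counterscreen run without enzyme against bio-H3K4me2 peptide to remove false positive hits from the JARID1 demethylase AlphaScreen screen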
JARID1B = target: T1, JARID1B (Homo sapiens, UniProt Q9UGL1); assay: FLAG-JARID1B histone demethylase assay with AlphaScreen detection (HTS and dose response); format: biochemical; conditions: for Assay − Artifact Signal (percent): assay signal minus artifact signal; for Assay Signal (percent) / Validation result of HTS active: effect of the compound in the JARID1B AlphaScreen demethylase assay: validation of HTS actives; for Assay Signal (percent): effect of compound in JARID1B AlphaScreen assay; for inhibition at 20 µM / Inhibitory effect (percent): high-throughput screen, compound 20 μM, standard demethylase conditions (10 μM α-KG, 50 μM Fe (II)); for inhibition at 20 µM: read-out: Inhibitory effect (percent); for Validation result of HTS active: effect of the compound in the JARID1B AlphaScreen demethylase assay: total signal before subtraction of artifact signal;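 on Assay Signal (percent): compound tested at 20 µM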;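 on Assay − Artifact Signal (percent): compound tested at 20 µM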;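 on all read-outs here: FLAG-tagged JARID1B at 4 nM acting on a biotinylated H3K4me3 peptide, demethylation read by AlphaScreen luminescence, with hits checked against bio-H3K4me2 without enzyme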
T1 construct: The FLAG tagged full length JARID1B enzyme was expressed in Sf21 insect cells using FLAG-JARID1B baculoviruses; FLAG (N); made in house; host or cells: Sf21 insect cells (baculovirus)
T1 sequence (Q9UGL1 whole entry): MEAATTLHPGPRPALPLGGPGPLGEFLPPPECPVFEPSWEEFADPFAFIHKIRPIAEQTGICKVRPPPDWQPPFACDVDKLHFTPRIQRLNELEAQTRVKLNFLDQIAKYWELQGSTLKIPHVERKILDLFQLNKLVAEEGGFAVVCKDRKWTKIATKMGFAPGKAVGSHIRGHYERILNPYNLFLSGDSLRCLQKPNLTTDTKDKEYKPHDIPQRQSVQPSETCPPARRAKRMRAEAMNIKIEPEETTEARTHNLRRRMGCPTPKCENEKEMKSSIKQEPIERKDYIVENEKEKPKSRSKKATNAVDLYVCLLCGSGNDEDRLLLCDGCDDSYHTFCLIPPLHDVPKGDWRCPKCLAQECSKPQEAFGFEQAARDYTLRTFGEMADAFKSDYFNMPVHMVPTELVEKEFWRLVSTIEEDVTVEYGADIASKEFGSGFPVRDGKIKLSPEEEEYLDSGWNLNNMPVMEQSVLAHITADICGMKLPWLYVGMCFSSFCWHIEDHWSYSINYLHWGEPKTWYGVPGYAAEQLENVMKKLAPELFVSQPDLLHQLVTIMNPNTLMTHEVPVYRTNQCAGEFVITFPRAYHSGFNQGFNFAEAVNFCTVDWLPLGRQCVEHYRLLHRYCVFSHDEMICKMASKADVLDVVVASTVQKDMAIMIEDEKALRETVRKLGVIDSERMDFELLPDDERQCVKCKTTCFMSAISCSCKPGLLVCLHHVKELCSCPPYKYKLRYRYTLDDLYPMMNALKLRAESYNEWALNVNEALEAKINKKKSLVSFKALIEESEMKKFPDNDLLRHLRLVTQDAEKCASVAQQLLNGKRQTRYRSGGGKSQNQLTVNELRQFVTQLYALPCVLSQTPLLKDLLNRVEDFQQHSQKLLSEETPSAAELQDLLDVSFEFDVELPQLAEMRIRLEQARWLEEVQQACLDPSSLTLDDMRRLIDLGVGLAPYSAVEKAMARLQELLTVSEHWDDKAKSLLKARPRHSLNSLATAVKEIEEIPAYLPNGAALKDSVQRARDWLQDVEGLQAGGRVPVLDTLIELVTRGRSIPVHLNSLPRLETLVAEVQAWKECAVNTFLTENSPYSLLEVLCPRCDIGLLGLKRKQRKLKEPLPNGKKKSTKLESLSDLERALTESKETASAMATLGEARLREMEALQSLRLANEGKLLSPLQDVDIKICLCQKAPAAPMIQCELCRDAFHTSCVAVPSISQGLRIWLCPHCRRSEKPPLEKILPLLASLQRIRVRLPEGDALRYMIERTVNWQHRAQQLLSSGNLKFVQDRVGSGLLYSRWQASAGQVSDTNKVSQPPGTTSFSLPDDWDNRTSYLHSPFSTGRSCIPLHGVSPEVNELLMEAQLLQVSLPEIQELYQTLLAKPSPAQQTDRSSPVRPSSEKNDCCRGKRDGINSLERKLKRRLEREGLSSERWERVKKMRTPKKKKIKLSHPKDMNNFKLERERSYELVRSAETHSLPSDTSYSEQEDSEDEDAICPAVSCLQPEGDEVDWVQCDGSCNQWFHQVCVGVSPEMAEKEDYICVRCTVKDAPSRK

SMILES | Artifact Signal (percent) [1] [%] | Assay − Artifact Signal (percent) (JARID1B) [%] | Assay Signal (percent) (JARID1B) [%] | Artifact signal: effect of the compound when it is incubated with bio-H3K4me2 peptide [1] | inhibition at 20 µM (JARID1B) [%] | Validation result of HTS active: effect of the compound in the JARID1B AlphaScreen demethylase assay (JARID1B) | Inhibitory effect (percent) (JARID1B) [%]
O=c1c(O)c(-c2ccc(O)c(O)c2)oc2c(O[C@@H]3O[C@H](CO)[C@@H](O)[C@H](O)[C@H]3O)c(O)cc(O)c12 [YU153353, GOSSYPIN, reference compound] | 61.80 | 37.81 | 99.61 | – | – | – | –
COc1cc2cc3c4cc(OC)c(OC)cc4cc[n+]3c(C)c2cc1OC.[Cl-] [YU155528, CORALYNE CHLORIDE, reference compound] | – | – | – | −5.30 | 73.2 | −1.03 | –
O=C(Nc1cnc(N2CCN(c3ccccc3Cl)CC2)c(C(=O)O)c1)c1ccc(F)cc1 [YU208247] | – | – | – | 0.47 | 51.5 | 7.92 | –
N#CC(=Cc1ccncc1)c1nc2ccccc2s1 [YU147088] | 0.34 | 45.66 | 46.00 | – | 39.8 | – | –
O=c1c(O[C@@H]2O[C@H](CO)[C@@H](O)[C@H](O)[C@H]2O)c(-c2ccc(O)c(O)c2)oc2cc(O)cc(O)c12 [YU221011, Isoquercitrin, reference compound] | 15.17 | 36.99 | 52.16 | – | 45.1 | – | –
COc1cc(NC(C)CCCN)c2ncccc2c1 (stereo not shown) [YU033971, PRIMAQUINE DIPHOSPHATE, reference compound] | −4.11 | 50.60 | 46.49 | – | 57.5 | – | –
Cc1ccc(C)c(CN2CCN(Cc3ccccc3)CC2)c1 [YU105182] | – | – | – | −1.74 | 35.3 | 3.14 | –
O=C(O)C=Cc1ccc(O)c(O)c1 (single isomer, unassigned) [YU155280, CAFFEIC ACID, reference compound] | −1.92 | – | – | – | 67.3 | – | –
O=C1C=CC(=O)[C@@H](Br)[C@@H]1Br [YU221139] | 7.07 | 23.33 | 30.40 | – | 58.7 | – | –
C=CC1=C(C(=O)O)N2C(=O)[C@@H](NC(=O)/C(=N\OCC(=O)O)c3csc(N)n3)[C@H]2SC1 [YU039791, CEFIXIME TRIHYDRATE, reference compound] | – | – | – | 96.65 | 105 | 104.49 | –
CCOC(=O)c1ccc(NC(c2cccnc2)c2ccc3cccnc3c2O)cc1 (stereo not shown) [YU172168] | – | – | – | 37.50 | 37.1 | 44.99 | –
CC(=O)NNC(=O)c1ccncc1 [YU129955] | −4.84 | 96.89 | 92.06 | – | 88.7 | – | –
CC(=O)Nc1ccc(N2CCC(C(N)=O)(N3CCCCC3)CC2)c(C(=O)O)c1 [YU208195] | – | – | – | 8.81 | 52.9 | 14.20 | –
O=C(O)c1cc(NCc2cc(O)ccc2O)ccc1O [YU154859, 2-HYDROXY-5-(2,5- DIHYDROXYBENZYL- AMINO)BENZOIC ACID, reference compound] | 3.65 | 42.61 | 46.26 | – | 46.4 | – | –
COc1ccc(C2CC(c3cccnc3)Nc3nnnn32)cc1 (stereo not shown) [YU151128] | −2.19 | 8.40 | 6.20 | – | 59.7 | – | –
COc1ccc2nc(NCc3ccncc3)sc2c1 [YU147704] | 1.42 | 54.05 | 55.47 | – | 70.4 | – | –
Cc1c(C(=O)O)cccc1-c1ccc(C=C[N+](=O)[O-])o1 (single isomer, unassigned) [YU147801] | 16.98 | 14.43 | 31.41 | – | 56.9 | – | –
Cc1noc2c1C(c1ccc(O)c(O)c1)C1=C(CCCC1=O)N2 (stereo not shown) [YU183529] | 4.16 | 36.06 | 40.22 | – | – | – | –
O=C([O-])c1ccccc1-c1c2cc(Br)c(=O)cc-2oc2[c]([Hg][OH])c([O-])c(Br)cc12 [YU034068, MERBROMIN, reference compound] | – | – | – | −1.81 | – | 3.43 | 99.27
C[n+]1cc2c3c(ccc2c2ccc4cc5c(cc4c21)OCO5)OCO3 [YU033662, SANGUINARINE SULFATE, reference compound] | 9.21 | 58.64 | 67.85 | – | – | – | 86.66
O=C1NC(=O)C(c2ccc(Cl)cc2)N1 (stereo not shown) [YU145089] | – | – | – | −1.01 | 78.3 | 4.23 | –
COc1c(O)cc2c(c1O)[C@@H]1O[C@H](CO)[C@@H](O)[C@H](O)[C@H]1OC2=O [YU155621, BERGENIN, reference compound] | 20.42 | 73.02 | 93.44 | – | 96.8 | – | –
c1cc(CNc2ccc3c(c2)OCCO3)ccn1 [YU146041] | 0.99 | 54.24 | 55.23 | – | 48.7 | – | –
O=C(NC1=NC(=O)C(F)(C(F)(F)F)S1)NC1CCCCC1 (stereo not shown) [YU153281] | 1.95 | 23.51 | 25.46 | – | 55.3 | – | –
CCCCCCCCCCCCCCCC[N+](C)(C)C [YU034377, CETRIMONIUM BROMIDE, reference compound] | – | – | – | −6.13 | 94.2 | −6.81 | –
CCC(=O)Nc1ccc(N2CCC(C(N)=O)(N3CCCCC3)CC2)c(C(=O)O)c1 [YU208193] | 16.13 | 11.50 | 27.63 | – | 46.1 | – | –
N#Cc1c(NC(=O)c2cnn3cccnc23)sc2c1CCCC2 [YU152893] | – | – | – | 1.62 | 84.5 | 9.21 | –
COc1cc(C=O)cc(Cl)c1OCc1cccc([N+](=O)[O-])c1 [YU152587] | – | – | – | −2.67 | 98.2 | −1.32 | –
Cc1ccc(C)n1NC(=O)c1ccc(O)cc1 [YU145520] | – | – | – | 1.80 | 36.9 | 3.79 | –
